# Active and inactive are the calls of the source. No cut-off for these calls is given here.
# Experiments:
# [1] = AUC (0 to 24 hrs) in […] at 15 mg/kg administered via oral gavage by LC-MS analysis; format: ADME, organism-based; set-up: dose 15 mg/kg, time < 24 hr, route oral; conditions: in vivo
# [2] = Cmax in Zucker rat sub-chronic fa/fa prediabetic model at 50 mg/kg, po qd measured on day 1 post dose; format: ADME, organism-based; set-up: dose 50 mg/kg, route oral; conditions: in vivo
# [3] = system: Rattus norvegicus; experiment: Effect on CD3D gene expression in epididymal white adipose tissue of Zucker rat sub-chronic fa/fa prediabetic model at 10 mg/kg, po qd for 15 days by microarray analysis relative to control; format: functional
# [4] = system: Rattus norvegicus; experiment: Effect on SYNJ2 gene expression in epididymal white adipose tissue of Zucker rat sub-chronic fa/fa prediabetic model at 10 mg/kg, po qd for 15 days by microarray analysis relative to control; format: functional
# [5] = system: Rattus norvegicus; experiment: Toxicity in […] chronic ob/ob model assessed as change in body weight at 10 mg/kg, po qd for 28 days measured on day 1 to 28 during compound dosing (reference value: 9.9 +/- 1.27 g); format: organism-based; conditions: in vivo, 672 h
# [6] = target: Oxysterols receptor LXR-beta (Homo sapiens, UniProt P55055); experiment: Antagonist activity at recombinant GST-tagged human LXRbeta LBD assessed as inhibition of TO901317-induced fluorescein-labeled coactivator peptide recruitment preincubated with enzyme followed by coactivator addition by LanthaScreen TR-FRET assay
# Oxysterols receptor LXR-beta, sequence (P55055 whole entry, the tested form may be a part): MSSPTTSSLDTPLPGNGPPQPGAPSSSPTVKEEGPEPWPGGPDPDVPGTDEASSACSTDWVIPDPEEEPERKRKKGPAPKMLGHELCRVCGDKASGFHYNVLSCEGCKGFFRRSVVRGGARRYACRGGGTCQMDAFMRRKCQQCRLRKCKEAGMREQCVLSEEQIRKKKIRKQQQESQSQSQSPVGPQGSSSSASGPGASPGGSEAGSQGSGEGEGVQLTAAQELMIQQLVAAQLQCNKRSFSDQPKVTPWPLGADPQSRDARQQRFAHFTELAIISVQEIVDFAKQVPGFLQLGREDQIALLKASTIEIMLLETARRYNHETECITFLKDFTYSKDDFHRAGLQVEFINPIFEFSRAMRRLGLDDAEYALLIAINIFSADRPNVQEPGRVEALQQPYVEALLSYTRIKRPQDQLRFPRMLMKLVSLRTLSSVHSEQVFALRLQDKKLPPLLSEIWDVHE
# [7] = system: Rattus norvegicus; experiment: Toxicity in Zucker rat sub-chronic fa/fa prediabetic model assessed as serum triglyceride level at 50 mg/kg, po qd for 31 days measured on day 32 (reference value: 1382 +/- 268 mg/dl); format: organism-based; conditions: in vivo, 744 h
# [8] = system: Rattus norvegicus; experiment: Effect on CHUK gene expression in epididymal white adipose tissue of Zucker rat sub-chronic fa/fa prediabetic model at 10 mg/kg, po qd for 15 days by microarray analysis relative to control; format: functional
# [9] = Cmax in Sprague-Dawley rat at 10 mg/kg administered via oral gavage by LC-MS analysis; format: ADME, organism-based; set-up: dose 10 mg/kg, route oral; conditions: in vivo
# [10] = system: Rattus norvegicus; experiment: Toxicity in Zucker rat sub-chronic fa/fa prediabetic model assessed as food intake at 50 mg/kg, po qd for 29 days measured on day 1 to 29 during compound dosing (reference value: 969 +/- 18 g); format: organism-based; conditions: in vivo, 696 h
# [11] = system: Rattus norvegicus; experiment: Effect on TGFB1 gene expression in epididymal white adipose tissue of Zucker rat sub-chronic fa/fa prediabetic model at 10 mg/kg, po qd for 15 days by microarray analysis relative to control; format: functional
# [12] = Cmax in Zucker rat sub-chronic fa/fa prediabetic model at 1 mg/kg, po qd measured on day 1 post dose; format: ADME, organism-based; set-up: dose 1 mg/kg, route oral; conditions: in vivo
# [13] = Cmax in Zucker rat sub-chronic fa/fa prediabetic model at 50 mg/kg, po qd for 26 days measured on day 26 post last dose; format: ADME, organism-based; set-up: dose 50 mg/kg, route oral; conditions: in vivo
# [14] = system: Rattus norvegicus; experiment: Toxicity in […] model assessed as serum ALT level at 10 mg/kg, po qd for 31 days measured on day 32 (reference value: 127 +/- 9 U/L); format: organism-based; conditions: in vivo, 744 h
# [15] = system: Rattus norvegicus; experiment: Toxicity in Zucker rat sub-chronic fa/fa prediabetic model assessed as serum cholesterol level at 1 mg/kg, po qd for 31 days measured on day 32 (reference value: 295 +/- 91 mg/dl); format: organism-based; conditions: in vivo, 744 h
# [16] = AUC (0 to 24 hrs) in Zucker rat sub-chronic fa/fa prediabetic model at 10 mg/kg, po qd for 26 days measured on day 26 post last dose; format: ADME, organism-based; set-up: dose 10 mg/kg, time < 24 hr, route oral; conditions: in vivo
# [17] = system: Rattus norvegicus; experiment: Toxicity in […] chronic ob/ob model assessed as epididymal white adipose tissue weight at 3 mg/kg, po qd for 31 days measured on day 32 (reference value: 3.92 +/- 0.14 g); format: organism-based; conditions: in vivo, 744 h
# [18] = system: Rattus norvegicus; experiment: Decrease in fed plasma glucose level in Zucker rat sub-chronic fa/fa prediabetic model at 10 mg/kg, po qd for 4 days measured on day 5 relative to control; format: functional; set-up: scale not given: the % may be the effect or the level left
# [19] = system: Rattus norvegicus; experiment: Antidiabetic activity in […] chronic ob/ob model assessed as increase in plasma adiponectin level administered po qd for 31 days measured on day 32 by ELISA; format: functional, organism-based
# [20] = system: Rattus norvegicus; experiment: Toxicity in […] chronic ob/ob model assessed as brown adipose tissue weight at 50 mg/kg, po qd for 31 days measured on day 32 (reference value: 0.59 +/- 0.05 g); format: organism-based; conditions: in vivo, 744 h
# [21] = system: Rattus norvegicus; experiment: Toxicity in Zucker rat sub-chronic fa/fa prediabetic model assessed as body weight at 10 mg/kg, po qd for 29 days measured on day 29 post last dose (reference value: 533 +/- 10 g); format: organism-based; conditions: in vivo, 696 h
# [22] = AUC (0 to 24 hrs) in CD-1 mouse at 20 mg/kg administered via oral gavage by LC-MS analysis; format: ADME, organism-based; set-up: dose 20 mg/kg, time < 24 hr, route oral; conditions: in vivo
# [23] = AUC (0 to 24 hrs) in […] model at 10 mg/kg, po qd for 28 days measured on day 28 post last dose; format: ADME, organism-based; set-up: time < 24 hr, dose 10 mg/kg, route oral; conditions: in vivo
# [24] = target: Sodium channel protein type 2 subunit alpha (Homo sapiens) (UniProt Q99250); experiment: Activity at human Nav1.2 expressed in CHOK1 cells assessed as effect on channel current up to 10 uM by patch clamp method; format: cell-based
# Sodium channel protein type 2 subunit alpha (Homo sapiens), sequence (Q99250 whole entry, looked up): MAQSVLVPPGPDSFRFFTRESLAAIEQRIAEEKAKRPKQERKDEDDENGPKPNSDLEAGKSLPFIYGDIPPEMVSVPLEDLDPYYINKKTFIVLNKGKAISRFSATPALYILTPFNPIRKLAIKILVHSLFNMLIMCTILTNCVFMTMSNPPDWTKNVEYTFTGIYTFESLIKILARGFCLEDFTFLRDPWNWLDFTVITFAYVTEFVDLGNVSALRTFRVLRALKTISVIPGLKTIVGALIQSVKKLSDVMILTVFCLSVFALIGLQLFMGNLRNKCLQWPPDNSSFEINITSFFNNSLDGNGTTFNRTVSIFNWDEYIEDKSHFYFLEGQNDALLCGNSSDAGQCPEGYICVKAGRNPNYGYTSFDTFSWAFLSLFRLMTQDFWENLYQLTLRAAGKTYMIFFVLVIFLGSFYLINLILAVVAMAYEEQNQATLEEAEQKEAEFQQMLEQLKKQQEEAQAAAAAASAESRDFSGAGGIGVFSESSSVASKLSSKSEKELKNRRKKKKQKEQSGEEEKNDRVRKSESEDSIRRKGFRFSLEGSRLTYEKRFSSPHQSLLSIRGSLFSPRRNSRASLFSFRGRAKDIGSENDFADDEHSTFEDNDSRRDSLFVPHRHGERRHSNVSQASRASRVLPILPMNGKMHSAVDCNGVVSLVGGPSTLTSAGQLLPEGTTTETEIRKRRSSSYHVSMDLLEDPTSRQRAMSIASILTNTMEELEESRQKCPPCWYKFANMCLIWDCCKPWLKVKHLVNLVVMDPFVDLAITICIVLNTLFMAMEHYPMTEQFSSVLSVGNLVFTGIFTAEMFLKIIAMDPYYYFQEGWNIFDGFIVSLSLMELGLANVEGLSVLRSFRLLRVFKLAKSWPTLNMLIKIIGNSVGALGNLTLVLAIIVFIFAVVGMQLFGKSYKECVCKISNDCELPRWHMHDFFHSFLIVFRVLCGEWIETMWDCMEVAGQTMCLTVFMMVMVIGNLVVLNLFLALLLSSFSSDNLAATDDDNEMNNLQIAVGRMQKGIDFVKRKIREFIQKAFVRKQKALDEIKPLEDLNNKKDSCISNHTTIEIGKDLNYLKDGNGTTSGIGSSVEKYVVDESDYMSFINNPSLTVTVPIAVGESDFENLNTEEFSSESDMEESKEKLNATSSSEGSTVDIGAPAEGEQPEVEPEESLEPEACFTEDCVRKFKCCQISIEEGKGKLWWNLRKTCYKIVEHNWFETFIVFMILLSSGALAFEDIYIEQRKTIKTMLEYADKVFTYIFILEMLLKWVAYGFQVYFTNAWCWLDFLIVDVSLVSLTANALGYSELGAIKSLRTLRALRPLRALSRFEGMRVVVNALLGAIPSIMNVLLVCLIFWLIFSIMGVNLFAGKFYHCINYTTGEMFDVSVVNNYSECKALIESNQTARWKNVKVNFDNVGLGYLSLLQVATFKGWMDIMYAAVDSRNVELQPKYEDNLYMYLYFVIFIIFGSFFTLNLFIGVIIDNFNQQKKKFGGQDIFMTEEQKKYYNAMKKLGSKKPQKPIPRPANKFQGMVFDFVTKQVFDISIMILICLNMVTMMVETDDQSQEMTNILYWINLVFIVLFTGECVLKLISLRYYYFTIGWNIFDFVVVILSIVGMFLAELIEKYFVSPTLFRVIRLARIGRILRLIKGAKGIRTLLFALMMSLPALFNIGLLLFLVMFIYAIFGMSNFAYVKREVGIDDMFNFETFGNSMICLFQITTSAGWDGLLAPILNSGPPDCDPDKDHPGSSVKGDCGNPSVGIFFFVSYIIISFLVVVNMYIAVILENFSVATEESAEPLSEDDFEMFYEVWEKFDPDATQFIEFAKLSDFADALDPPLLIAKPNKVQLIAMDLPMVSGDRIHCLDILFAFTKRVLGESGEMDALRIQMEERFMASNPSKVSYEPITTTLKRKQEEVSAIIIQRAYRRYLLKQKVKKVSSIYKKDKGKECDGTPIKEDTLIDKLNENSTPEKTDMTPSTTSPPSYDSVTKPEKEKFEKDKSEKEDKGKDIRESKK
compound,measurement,setting,value
CN1CC[C@@H](N2C(=O)S/C(=C\c3ccc4c(cnn4Cc4ccc(Cl)cc4C(F)(F)F)c3)C2=O)[C@H](F)C1,AUC(0-t) at 24 h,[1],34500 ng·h/mL
same,Cmax,[2],8380 ng/mL
same,fold change (FC),[3],-1.256
same,fold change (FC),[4],-1.663
same,Activity,[5],8.7 g
same,IC50,[6],> 10 µM
same,Activity,[7],198 mg/dL
same,fold change (FC),[8],1.379
same,Cmax,[9],683 ng/mL
same,Activity,[10],1049 g
same,fold change (FC),[11],-1.47
same,Cmax,[12],262 ng/mL
same,Cmax,[13],7660 ng/mL
same,Activity,[14],135 U/L
same,Activity,[15],328 mg/dL
same,AUC at 24 h,[16],23900 ng·h/mL
same,Activity,[17],3.44 g
same,Activity,[18],-32%
same,Activity,[19],Dose-dependent effect
same,Activity,[20],1.31 g
same,Activity,[21],551 g
same,AUC(0-t) at 24 h,[22],14600 ng·h/mL
same,AUC at 24 h,[23],5910 ng·h/mL
same,Activity,[24],inactive

# — ChEMBL document CHEMBL4130359, “Indazole-based ligands for estrogen-related receptor α as potential anti-diabetic agents” (Eur J Med Chem, 2017)
